# Assay results reported in patent US20190359645A1, “2'3'-CYCLIC DINUCLEOTIDES COMPRISING CARBOCYCLIC NUCLEOTIDE” (Institute of Organic Chemistry and Biochemistry ASCR, V.V.I., priority 2018, published 2019).
# Target: T1, AQ STING (G230A-R293Q) (Homo sapiens, UniProt Q86WV6, G230A/H232R/R293Q)
# T1 construct: truncated human WT STING or AQ STING (amino acid residues 140-343); 8xHis (N, cleaved yes); SUMO (N, cleaved yes); made in house; host or cells: E. coli Rosetta-gami B (DE3)
# Test: Differential scanning fluorimetry (DSF) with AQ STING
# Format: binding
# Settings: read-out: DSF ΔTm AQ STING
# Source text: Both WT and AQ human STING (G230A-R^293Q) cDNA were amplified by the use of PCR (Phusion® High-Fidelity DNA Polymerase, cat. # M0530S, NEB, Ipswich, USA) using oligonucleotides hSTING140-BamH-For ([…]) (SEQ ID NO:5) and hSTING379-Not-Rev3 ([…]) (SEQ ID NO:6) from pUNOI-hSTING-WT (cat. # punol-hstingwt, InvivoGen, San Diego, USA) and pUNO1-hSTING-HAQ plasmids (punol-hsting-haq, InvivoGen, San Diego, USA). Purified PCR products were cleaved with restriction enzymes BamHI (cat. # R^0136S, NEB, Ipswich, USA) and NotI (cat. # R^0189S, NEB, Ipswich, USA) and cloned into the pSUMO vector linearized with the identical enzymes. Plasmid pSUMO was created by introducing 8-His-SUMO sequence between NdeI and BamHI sites of pHis-parallel2 plasmid (Clontech, Moutain View, USA). pSUMO-STING WT or pSUMO-STING AQ plasmids thus encoded truncated human WT STING or AQ STING (amino acid residues 140-343) with N-terminal 8×His and SUMO tag.
# The recombinant WT STING and AQ STING proteins were overexpressed in Rosetta-gami B (DE3) competent cells (cat. #71136-3, Merck Millipore, Billerica, USA). Bacterial pellets were re-suspended in ice-cold lysis buffer containing 50 mmol·l^−1 TrisCl (cat. # T1503, Sigma Aldrich, Czech Republic) pH 8.0, 300 mmol·l^−1 NaCl, 3 mmol·l^−1 (3-mercaptoethanol (cat. # M6250, Sigma Aldrich, Czech Republic), 10% glycerol (cat. #G5516, Sigma Aldrich, Czech Republic) and 20 mmol·l^−1 imidazole (cat. #15513, Sigma Aldrich, Czech Republic) using Dounce homogenizer. DNase I (cat. # D5025, Sigma Aldrich, Czech Republic) and RNase A (cat. # R^6513, Sigma Aldrich, Czech Republic) were added (final concentration 50 μg/ml) together with MgCl2 (final concentration 5 mmol·l^−1) to the homogenate and bacteria were lysed using French Press G-M™ High-Pressure Cell Press Homogenizer (1500 psi, 3 cycles). Lysate was spun 30,000 g for 20 minutes and supernatant was gently stirred with Ni-NTA resin (cat. #745400.25 Macherey-Nagel, Duren, Germany) for 30 minutes. The resin was poured into a chromatography column, washed with 50 ml buffer A (50 mmol·l^−1 TrisCl (pH 8.0), 800 mmol·l^−1 NaCl, 3 mmol·l^−1β-mercaptoethanol; 10% glycerol; 20 mmol·l^−1 imidazole) and 8-His-SUMO tagged STING proteins were eluted with 15 ml buffer A containing 300 mmol·l^−1 imidazole. The eluted proteins were cleaved with recombinant SUMO protease (80 pig/ml of protein solution, cat. #12588018, ThermoFisher, Waltham, USA). The proteins were further purified by size exclusion chromatography using HiLoad 16/60 Superdex 75 (cat. #28989333, GE Healthcare Bio-Sciences, Pittsburgh, USA) in 50 mmol·l^−1 Tris C1 buffer pH 7.4 containing 150 mmol·l^−1 NaCl, and 10% glycerol. Proteins were concentrated with Amicon® Ultra-15 10 K device (cat. # UFC901008, Merck Millipore, Billerica, USA) and flash frozen in liquid N2.
# WT and AQ allelic forms of STING protein were diluted to the final concentration 0.1 mg/ml in 100 mmol·l^−1 TrisCl buffer pH 7.4 containing, 150 mmol·l^−1 NaCl, 1:500 SYPRO Orange (cat. # S6650, ThermoFisher, Waltham, USA) and 150 μM CDN or water. 20 μL solutions of the reaction mixtures were pipetted in triplicates into 96 well optical reaction plates and thermal denaturation of samples were performed on real time PCR cycler (LightCycler® 480 Instrument II—Roche, Basel, Switzerland). The first derivative of the thermal denaturation curves was performed to calculate denaturing temperatures of STING-CDN complexes and STING apoproteins. The thermal shift for each CDN was calculated by subtracting the average denaturing temperature of STING apoprotein from the average denaturing temperature of STING CDN complex.
# T1 sequence (Q86WV6 140-343 G230A/H232R/R293Q): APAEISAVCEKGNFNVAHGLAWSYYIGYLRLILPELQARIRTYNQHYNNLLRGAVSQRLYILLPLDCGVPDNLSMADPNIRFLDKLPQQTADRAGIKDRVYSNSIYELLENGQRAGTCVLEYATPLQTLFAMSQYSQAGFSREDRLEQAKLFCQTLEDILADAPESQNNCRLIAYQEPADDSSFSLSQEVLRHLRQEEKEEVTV
row,Structure (SMILES),ΔTm at 150 µM
1,"Nc1nc2c(ncn2[C@@H]2C[C@@H]3COP(=O)(O)OC4C(O)[C@H](n5cnc6c(N)ncnc65)O[C@@H]4COP(O)(=S)OC2C3O)c(=O)[nH]1 (stereo partly drawn) [Compound 101, 2-amino-9-[(6R,8R,15R,17R)-8-(6-amino-9H-purin-9-yl)-3,9,12,18-tetrahydroxy-12-oxo-3-sulfanylidene-2,4,7,11,13-pentaoxa-3λ^5,12λ^5-diphosphatricyclo[13.2.1.0^6,10]octadecan-17-yl]-6,9-dihydro-1H-purin-6-one]",19.8 °C

# Same assay, conditions: thermal shift, truncated human AQ STING 0.1 mg/ml, 150 μM CDN
row,Structure (SMILES),DSF ΔTm AQ STING
1,"Nc1ncnc2c1ncn2[C@@H]1O[C@@H]2COP(=O)(S)O[C@@H]3[C@H](F)[C@@H](COP(=O)(S)O[C@H]2[C@H]1F)C[C@H]3n1cnc2c(=O)[nH]cnc21 (single isomer, unassigned) [Compound 128b]",13.8 °C
2,"Nc1ncnc2c1ncn2[C@@H]1O[C@@H]2COP(=O)(S)O[C@@H]3[C@H](F)[C@@H](COP(=O)(S)O[C@H]2[C@H]1F)C[C@H]3n1cnc2c(=O)[nH]cnc21 (single isomer, unassigned) [Compound 128c]",18.2 °C
3,"Nc1ncnc2c1ncn2[C@@H]1O[C@@H]2COP(=O)(S)O[C@@H]3[C@H](F)[C@@H](COP(=O)(S)O[C@H]2[C@H]1F)C[C@H]3n1cnc2c(=O)[nH]cnc21 (single isomer, unassigned) [Compound 128d]",21.3 °C

# Same assay, conditions: thermal shift, truncated human AQ STING 0.1 mg/ml, 150 μM CDN; read-out: DSF ΔTm AQ STING
row,Structure (SMILES),ΔTm at 150 µM
1,"Nc1ncnc2c1ncn2[C@@H]1O[C@@H]2COP(=O)(S)O[C@@H]3[C@H](F)[C@@H](COP(=O)(S)O[C@H]2[C@H]1F)C[C@H]3n1cnc2c(=O)[nH]cnc21 (single isomer, unassigned) [Compound 128a]",16.5 °C
2,"Nc1nc2c(ncn2[C@@H]2C[C@@H]3COP(=O)(O)OC4C(O)[C@H](n5cnc6c(N)ncnc65)O[C@@H]4COP(=O)(O)OC2C3O)c(=O)[nH]1 (stereo partly drawn) [Compound 102, (6R,8R,15R,17R)-17-(2-amino-6-oxo-6,9-dihydro-1H-purin-9-yl)-8-(6-amino-9H-purin-9-yl)-3,9,12,18-tetrahydroxy-2,4,7,11,13-pentaoxa-3λ^5,12λ^5-diphosphatricyclo[13.2.1.0^6,10]octadecane-3,12-dione]",19.8 °C
3,"Nc1nc2c(ncn2[C@@H]2C[C@@H]3COP(=O)(O)OC4C(O)[C@H](n5cnc6c(N)nc(F)nc65)O[C@@H]4COP(=O)(O)OC2C3O)c(=O)[nH]1 (stereo partly drawn) [Compound 103, (6R,8R,15R,17R)-8-(6-amino-2-fluoro-9H-purin-9-yl)-17-(2-amino-6-oxo-6,9-dihydro-1H-purin-9-yl)-3,9,12,18-tetrahydroxy-2,4,7,11,13-pentaoxa-3λ^5,12λ^5-diphosphatricyclo[13.2.1.0^6,10]octadecane-3,12-dione]",15.2 °C
4,"Nc1nc2c(ncn2[C@@H]2C[C@@H]3COP(=O)(O)OC4C(O)[C@H](n5cnc6c(=O)[nH]cnc65)O[C@@H]4COP(=O)(O)OC2C3O)c(=O)[nH]1 (stereo partly drawn) [Compound 104, (6R,8R,15R,17R)-17-(2-amino-6-oxo-6,9-dihydro-1H-purin-9-yl)-3,9,12,18-tetrahydroxy-8-(6-oxo-6,9-dihydro-1H-purin-9-yl)-2,4,7,11,13-pentaoxa-3λ^5,12λ^5-diphosphatricyclo[13.2.1.0^6,10]octadecane-3,12-dione]",13.3 °C
5,"Nc1nc(N)c2ncn([C@@H]3O[C@@H]4COP(=O)(O)OC5C(O)[C@@H](COP(=O)(O)OC4C3O)C[C@H]5n3cnc4c(=O)[nH]c(N)nc43)c2n1 (stereo partly drawn) [Compound 105, (6R,8R,15R,17R)-17-(2-amino-6-oxo-6,9-dihydro-1H-purin-9-yl)-8-(2,6-diamino-9H-purin-9-yl)-3,9,12,18-tetrahydroxy-2,4,7,11,13-pentaoxa-3λ^5,12λ^5-diphosphatricyclo[13.2.1.0^6,10]octadecane-3,12-dione]",13.2 °C
